Our source for the inhibition and Activity values is ChEMBL document CHEMBL4613236, “Magnoflorine from Coptis chinese has the potential to treat DNCB-induced Atopic dermatits by inhibiting apoptosis of keratinocyte” (Bioorg Med Chem, 2020).

Activity calls are given as the source filed them. The rule behind the calls is not given here.

The subject of data set [1] is HaCaT. In words: Inhibition of TNF-alpha/IFN-gamma-induced apoptosis in human HaCaT cells after 24 hrs by Annexin V-FITC/propidium iodide double staining-based flow cytometry. In kind it is functional, cell-based.
Data set [2] deals with HaCaT. In words: Cytotoxicity against human HaCaT cells assessed as reduction in cell viability after 24 hrs by MTT assay. The data set is classed as cell-based. In general terms: Formazan colour is commonly taken as a measure of viable cells.
Data set [3] deals with HaCaT. In words: Inhibition of TNF-alpha/IFN-gamma-induced apoptosis in human HaCaT cells assessed as apoptotic rate at 1500 ug/ml after 24 hrs by Annexin V-FITC/propidium iodide double staining-based flow cytometry (reference value: 42.9%). The data set is classed as functional. Set-up: scale not given: the % may be the effect or the level left. A general note: Flow cytometry measures light scatter and fluorescence of single cells or particles in a stream.

The subject of data set [4] is Mus musculus. As to the kind of experiment: Protection against DNCB-induced skin inflammation in BALB/c mouse model of atopic dermatitis assessed as reduction in skin erythema at 0.1 g/ml administered topically once daily for 16 days measured post last dose. In kind it is functional, organism-based.
In data set [5] the test system is Mus musculus. In words: Protection against DNCB-induced skin inflammation in BALB/c mouse model of atopic dermatitis assessed as reduction in skin erosion at 0.1 g/ml administered topically once daily for 16 days measured post last dose. The data set is classed as functional, organism-based.
Data set [6] has as its system Mus musculus. As to the kind of experiment: Protection against DNCB-induced skin inflammation in BALB/c mouse model of atopic dermatitis assessed as reduction in skin dryness at 0.1 g/ml administered topically once daily for 16 days measured post last dose. In kind it is functional, organism-based.
The subject of data set [7] is Mus musculus. As to the kind of experiment: Protection against DNCB-induced skin inflammation in BALB/c mouse model of atopic dermatitis assessed as number of caspase-3 positive cells at 0.1 g/ml administered topically once daily for 16 days measured post last dose by […] based light microscopic analysis (reference value: 1054 +/- 74.9). In kind it is functional.

In data set [8] the test system is HaCaT. As to the kind of experiment: Inhibition of TNFalpha/IFN-gamma-induced apoptosis in human HaCaT cells assessed as change in mitochondrial membrane potential at 500 ug/ml after 24 hrs by DiOC6 probe based flow cytometric analysis (reference value: 15.36 +/- 0.76). In kind it is functional.
Data set [9] relates to HaCaT. As to the kind of experiment: Inhibition of TNFalpha/IFN-gamma-induced apoptosis in human HaCaT cells assessed as increase in mitochondrial membrane potential after 24 hrs by DiOC6 probe based flow cytometric analysis. The data set is classed as functional, cell-based.
Data set [10] deals with HaCaT. As to the kind of experiment: Inhibition of TNFalpha/IFN-gamma-induced apoptosis in human HaCaT cells assessed as rounded nuclei with sharp edges at 500 to 1500 ug/ml after 24 hrs by Hoechst staining based fluorescence microscopic analysis. The data set is classed as functional, cell-based.
The subject of data set [11] is HaCaT. In words: Inhibition of TNFalpha/IFN-gamma-induced apoptosis in human HaCaT cells assessed as increase in Bid expression at 500 ug/ml after 24 hrs by Western blot analysis. The data set is classed as functional, cell-based. (In general: Immunoblotting shows a protein as a band on a membrane.)
For data set [12], the system named is HaCaT. As to the kind of experiment: Inhibition of TNFalpha/IFN-gamma-induced apoptosis in human HaCaT cells assessed as increase in cytochrome C expression at 500 ug/ml after 24 hrs by Western blot analysis. In kind it is functional, cell-based.
Data set [13] concerns HaCaT. As to the kind of experiment: Inhibition of TNFalpha/IFN-gamma-induced apoptosis in human HaCaT cells assessed as increase in caspase 3 expression at 500 ug/ml after 24 hrs by Western blot analysis. In kind it is functional, cell-based.
Data set [14] concerns HaCaT. In words: Inhibition of TNFalpha/IFN-gamma-induced apoptosis in human HaCaT cells assessed as increase in caspase 7 expression at 500 ug/ml after 24 hrs by Western blot analysis. In kind it is functional, cell-based.
Data set [15] deals with HaCaT. In words: Inhibition of TNFalpha/IFN-gamma-induced apoptosis in human HaCaT cells assessed as increase in caspase 8 expression at 500 ug/ml after 24 hrs by Western blot analysis. The data set is classed as functional, cell-based.
For data set [16], the system named is HaCaT. As to the kind of experiment: Inhibition of TNFalpha/IFN-gamma-induced apoptosis in human HaCaT cells assessed as increase in caspase 9 expression at 500 ug/ml after 24 hrs by Western blot analysis. In kind it is functional, cell-based.
Data set [17] has as its system HaCaT. As to the kind of experiment: Inhibition of TNFalpha/IFN-gamma-induced apoptosis in human HaCaT cells assessed as increase in cathepsin B expression at 500 ug/ml after 24 hrs by Western blot analysis. The data set is classed as functional, cell-based.
A short description of data set [18]: Toxicity in DNCB-induced skin inflammation in BALB/c mouse model of atopic dermatitis assessed as effect on organs at 0.1 g/ml administered topically once daily for 16 days. The note with it: in vivo, topical_or_ocular, 384 h.
For data set [19], the system named is Mus musculus. As to the kind of experiment: Protection against DNCB-induced skin inflammation in BALB/c mouse model of atopic dermatitis assessed as reduction in IgE level at 0.1 g/ml administered topically once daily for 16 days measured post last dose by ELISA. The data set is classed as functional, organism-based.
Data set [20] relates to Mus musculus. As to the kind of experiment: Protection against DNCB-induced skin inflammation in BALB/c mouse model of atopic dermatitis assessed as reduction in IL4 level at 0.1 g/ml administered topically once daily for 16 days measured post last dose by ELISA. In kind it is functional, organism-based.
Data set [21] has as its system Mus musculus. As to the kind of experiment: Protection against DNCB-induced skin inflammation in BALB/c mouse model of atopic dermatitis assessed as reduction in spleen index at 0.1 g/ml administered topically once daily for 16 days measured post last dose. The data set is classed as functional, organism-based.
Data set [22] relates to Mus musculus. As to the kind of experiment: Protection against DNCB-induced skin inflammation in BALB/c mouse model of atopic dermatitis assessed as reduction in dermal edema at 0.1 g/ml administered topically once daily for 16 days measured post last dose. The data set is classed as functional, organism-based.
Data set [23] concerns Mus musculus. As to the kind of experiment: Protection against DNCB-induced skin inflammation in BALB/c mouse model of atopic dermatitis assessed as reduction in hair follicle disappearance at 0.1 g/ml administered topically once daily for 16 days measured post last dose. In kind it is functional, organism-based.
For data set [24], the system named is HaCaT. In words: Induction of apoptosis in human HaCaT cells at 500 to 1500 ug/ml after 24 hrs by Hoechst staining based fluorescence microscopic analysis. In kind it is cell-based.

In the case of `COc1ccc2cc3[n+](cc2c1OC)CCc1cc2c(cc1-3)OCO2` [BERBERINE], in the data set on HaCaT [1], the inhibition result was “inactive”. Also, the Activity result with HaCaT [2] is “Toxic”.
The corresponding values for `COc1cc2c(cc1OC)-c1cc3ccc(OC)c(OC)c3c[n+]1CC2` [PALMITINE] are “inactive” and “Toxic”.
For `COc1cc2c(cc1O)CC[n+]1cc3c(OC)c(OC)ccc3cc1-2` [JATRORRHIZINE] the same measures were “inactive” and “Toxic”.
With `COc1ccc2c(c1O)-c1c(O)c(OC)cc3c1[C@H](C2)[N+](C)(C)CC3` [MAGNOFLORINE], the inhibition result with HaCaT [1] and in the data set with HaCaT [9] was “Dose-dependent effect” throughout. The Activity was 22.1% in the data set with HaCaT [3]; 509.8 in the data set on Mus musculus [7]; 12.66 in the data set on HaCaT [8]; “Non-Toxic” with HaCaT [2]; “Non-Toxic” in data set [18]; “Non-Toxic” in the data set on HaCaT [24]. The result with Mus musculus [4], with Mus musculus [5], with Mus musculus [6], in the data set with Mus musculus [19], with Mus musculus [20] and in the data set with Mus musculus [21] was Active. Besides, the result with Mus musculus [22] and with Mus musculus [23] was Active. In addition, the inhibition entry in the data set with HaCaT [10], with HaCaT [11], in the data set with HaCaT [12], with HaCaT [13], in the data set with HaCaT [14] and with HaCaT [15] was “Active” in each case. Besides, the inhibition result in the data set with HaCaT [16] and in the data set on HaCaT [17] was “Active” throughout.
In the case of `COc1cc2c(cc1OC)-c1cc3ccc4c(c3c[n+]1CC2)OCO4`, the inhibition result in the data set with HaCaT [1] is “inactive”. For the same compound, the Activity entry in the data set with HaCaT [2] was “Toxic”.
In the case of `COc1cc2c(cc1O)-c1cc3ccc(OC)c(OC)c3c[n+]1CC2` [COLUMBAMINE], in the data set with HaCaT [1], the inhibition entry was “inactive”. Also, the Activity entry with HaCaT [2] is “Toxic”.
For `c1c2c(cc3c1OCO3)-c1cc3ccc4c(c3c[n+]1CC2)OCO4` [COPTISINE] the same measures were “inactive” and “Toxic”.
